Data published in patent US9326516B2, “Molecules having certain pesticidal utilities, and intermediates, compositions, and processes related thereto” (Dow AgroSciences LLC, priority 2014, dated 2016).

Key:
Assay type in all cases: in vivo
[1] = tested on: Beet Armyworm (Spodoptera exigua, LAPHEG); assay: Bioassay on Beet Armyworm (BAW), 128-well diet tray assay; settings: 168 h, 50 μg/cm^2 on artificial diet, second instar BAW larvae, 25° C., five to seven days, average of eight wells, read-out: BAW % Control (or Mortality) rating
Description: (§1) Certain molecules disclosed in this document were tested against BAW and CEW using procedures described in the following examples. In the reporting of the results, the “BAW & CL Rating Table” was used (See Table Section).
Bioassays on BAW were conducted using a 128-well diet tray assay. one to five second instar BAW larvae were placed in each well (3 mL) of the diet tray that had been previously filled with 1 mL of artificial diet to which 50 μg/cm^2 of the test compound (dissolved in 50 μL of 90:10 acetone-water mixture) had been applied (to each of eight wells) and then allowed to dry. Trays were covered with a clear self-adhesive cover and held at 25° C., 14:10 light-dark for five to seven days. Percent mortality was recorded for the larvae in each well; activity in the eight wells was then averaged. The results are indicated in the table entitled “Table ABC: Biological Results” (See Table Section).

[2] = tested on: Cabbage Looper (Trichoplusia ni, TRIPNI); assay: Bioassay on Cabbage Looper (CL), 128-well diet tray assay; settings: 168 h, 50 μg/cm^2 on artificial diet, second instar CL larvae, 25° C., five to seven days, average of eight wells, read-out: CL % Control (or Mortality) rating
Description: as §1
Bioassays on CL were conducted using a 128-well diet tray assay, one to five second instar CL larvae were placed in each well (3 mL) of the diet tray that had been previously filled with 1 mL of artificial diet to which 50 μg/cm^2 of the test compound (dissolved in 50 μL of 90:10 acetone-water mixture) had been applied (to each of eight wells) and then allowed to dry. Trays were covered with a clear self-adhesive cover and held at 25° C., 14:10 light-dark for five to seven days. Percent mortality was recorded for the larvae in each well; activity in the eight wells was then averaged. The results are indicated in the table entitled “Table ABC: Biological Results” (See Table Section).

[3] = tested on: Green Peach Aphid (Myzus persicae, MYZUPE); assay: Bioassay on Green Peach Aphid (GPA), foliar spray on cabbage seedlings; settings: 72 h, 200 ppm spray on infested cabbage seedlings, graded after three days, Abbott corrected % control, read-out: GPA % Control (or Mortality) rating
Description: Certain molecules disclosed in this document were tested against GPA using procedures described in the following example. In the reporting of the results, the “GPA Rating Table” was used (See Table Section).
Cabbage seedlings grown in 3-inch pots, with 2-3 small (3-5 cm) true leaves, were used as test substrate. The seedlings were infested with 20-50 GPA (wingless adult and nymph stages) one day prior to chemical application. Four pots with individual seedlings were used for each treatment. Test compounds (2 mg) were dissolved in 2 mL of acetone/methanol (1:1) solvent, forming stock solutions of 1000 ppm test compound. The stock solutions were diluted 5× with 0.025% Tween 20 in water to obtain the solution at 200 ppm test compound. A hand-held aspirator-type sprayer was used for spraying a solution to both sides of […] leaves until runoff. Reference plants (solvent check) were sprayed with the diluent only containing 20% by volume of acetone/methanol (1:1) solvent. Treated plants were held in a holding room for three days at approximately 25° C. and ambient relative humidity (RH) prior to grading. Evaluation was conducted by counting the number of live aphids per plant under a microscope. Percent Control was measured by using Abbott's correction formula (W. S. Abbott, “A Method of Computing the Effectiveness of an Insecticide” J. Econ. Entomol. 18 (1925), pp. 265-267) as follows. Corrected % Control=100*(X−Y)/X where X=No. of live aphids on solvent check plants and Y=No. of live aphids on treated plants

[4] = tested on: Yellow Fever Mosquito (Aedes aegypti, AEDSAE); settings: about 1 day-old larvae, master plate 4000 ppm in DMSO diluted, room temperature, scored after 3 days on mortality
Description: Certain molecules disclosed in this document were tested against YFM using procedures described in the following paragraph. In the reporting of the results, the “YFM Rating Table” was used (See Table Section).
Master plates containing 400 μg of a molecule dissolved in 100 μL of dimethyl sulfoxide (DMSO) (equivalent to a 4000 ppm solution) are used. A master plate of assembled molecules contains 15 μL per well. To this plate, 135 μL of a 90:10 water:acetone mixture is added to each well. A robot (Biomek® NXP Laboratory Automation Workstation) is programmed to dispense 15 μL aspirations from the master plate into an empty 96-well shallow plate (“daughter” plate). There are 6 reps (“daughter” plates) created per master. The created daughter plates are then immediately infested with YFM larvae.
The day before plates are to be treated, mosquito eggs are placed in Millipore water containing liver powder to begin hatching (4 g. into 400 mL). After the daughter plates are created using the robot, they are infested with 220 μL of the liver powder/larval mosquito mixture (about 1 day-old larvae). After plates are infested with mosquito larvae, a non-evaporative lid is used to cover the plate to reduce drying. Plates are held at room temperature for 3 days prior to grading. After 3 days, each well is observed and scored based on mortality.

In the case of `FC(F)(F)Oc1ccc(-n2cnc(-c3ccc(NC4=N[C@H](c5ccccc5)CO4)cc3)n2)cc1` [Compound F1, (R)-4-Phenyl-N-(4-(1-(4-(trifluoromethoxy)phenyl)-1H-1,2,4-triazol-3-yl)phenyl)-4,5-dihydrooxazol-2-amine], the mortality at 50 µg/cm2 [1] is reported as 50 to 100%, the mortality at 50 µg/cm2 [2] is reported as 50 to 100% and the mortality at 200 ppm [3] is reported as 80 to 100%. For the same compound, the “YFM % Control (or Mortality) rating” value [4] was “B (More than 0-Less than 80)”.
With `FC(F)(F)Oc1ccc(-n2cnc(-c3ccc(NC4=N[C@@H](c5ccccc5)CO4)cc3)n2)cc1` [Compound F2, (S)-4-Phenyl-N-(4-(1-(4-(trifluoromethoxy)phenyl)-1H-1,2,4-triazol-3-yl)phenyl)-4,5-dihydrooxazol-2-amine] the mortality at 50 µg/cm2 [1] was 50 to 100%, the mortality at 50 µg/cm2 [2] was 50 to 100% and the mortality at 200 ppm [3] was 80 to 100%. For the same compound, the “YFM % Control (or Mortality) rating” value [4] was “B (More than 0-Less than 80)”.
Compound `FC(F)(F)Oc1ccc(-n2cnc(-c3ccc(NC4=NC(c5ccc(C(F)(F)F)cc5)CO4)cc3)n2)cc1` (centres unmarked) [Compound F5, N-(4-(1-(4-(Trifluoromethoxy)phenyl)-1H-1,2,4-triazol-3-yl)phenyl)-4-(4-(trifluoromethyl)phenyl)-4,5-dihydrooxazol-2-amine] has a mortality at 50 µg/cm2 [1] of 50 to 100%, a mortality at 50 µg/cm2 [2] of 50 to 100% and a mortality at 200 ppm [3] of 80 to 100%. For the same compound, the “YFM % Control (or Mortality) rating” value [4] was “B (More than 0-Less than 80)”.
Work on `FC(F)(F)Oc1ccc(-n2cnc(-c3ccc(NC4=NC(c5ccccc5Cl)CO4)cc3)n2)cc1` (centres unmarked) [Compound F11, 4-(2-Chlorophenyl)-N-(4-(1-(4-(trifluoromethoxy)phenyl)-1H-1,2,4-triazol-3-yl)phenyl)-4,5-dihydrooxazol-2-amine] yielded a mortality at 50 µg/cm2 [1] of 50 to 100%, a mortality at 50 µg/cm2 [2] of 50 to 100% and a mortality at 200 ppm [3] of 0%. For the same compound, the “YFM % Control (or Mortality) rating” value [4] was “D (No activity noticed in this bioassay)”.
Work on `FC(F)(F)Oc1ccc(-n2cnc(-c3ccc(NC4=N[C@H](c5ccccc5)CCO4)cc3)n2)cc1` [Compound F20, (S)-4-Phenyl-N-(4-(1-(4-(trifluoromethoxy)phenyl)-1H-1,2,4-triazol-3-yl)phenyl)-5,6-dihydro-4H-1,3-oxazin-2-amine] yielded a mortality at 50 µg/cm2 [1] of 0%, a mortality at 50 µg/cm2 [2] of 50 to 100% and a mortality at 200 ppm [3] of 80 to 100%. The “YFM % Control (or Mortality) rating” value [4] was “B (More than 0-Less than 80)”.
Compound `FC(F)(F)Oc1ccc(-n2cnc(-c3ccc(NC4=NC(c5ccc(Cl)cc5)CCO4)cc3)n2)cc1` (centres unmarked) [Compound F43, 4-(4-Chlorophenyl)-N-(4-(1-(4-(trifluoromethoxy)phenyl)-1H-1,2,4-triazol-3-yl)phenyl)-5,6-dihydro-4H-1,3-oxazin-2-amine] has a mortality at 50 µg/cm2 [1] of 0 to 50%, a mortality at 50 µg/cm2 [2] of 50 to 100% and a mortality at 200 ppm [3] of 80 to 100%. The “YFM % Control (or Mortality) rating” value [4] was “B (More than 0-Less than 80)”.
`Cc1ccc(C2CCOC(Nc3ccc(-c4ncn(-c5ccc(OC(F)(F)F)cc5)n4)cc3)=N2)cc1` (centres unmarked) [Compound F44, 4-(p-Tolyl)-N-(4-(1-(4-(trifluoromethoxy)phenyl)-1H-1,2,4-triazol-3-yl)phenyl)-5,6-dihydro-4H-1,3-oxazin-2-amine] showed a mortality at 50 µg/cm2 [1] of 0 to 50%, a mortality at 50 µg/cm2 [2] of 50 to 100% and a mortality at 200 ppm [3] of 80 to 100%. For the same compound, the “YFM % Control (or Mortality) rating” value [4] was “B (More than 0-Less than 80)”.
`FC(F)(F)Oc1ccc(-n2cnc(-c3ccc(NC4=NC(c5ccc(C(F)(F)F)cc5)CCO4)cc3)n2)cc1` (centres unmarked) [Compound F45, N-(4-(1-(4-(Trifluoromethoxy)phenyl)-1H-1,2,4-triazol-3-yl)phenyl)-4-(4-(trifluoromethyl)phenyl)-5,6-dihydro-4H-1,3-oxazin-2-amine] showed a mortality at 50 µg/cm2 [1] of 50 to 100%, a mortality at 50 µg/cm2 [2] of 50 to 100% and a mortality at 200 ppm [3] of 80 to 100%. For the same compound, the “YFM % Control (or Mortality) rating” value [4] was “B (More than 0-Less than 80)”.
